From patent publication US20250213563A1, “SUBSTITUTED PYRIMIDIN-4(3H)-ONES FOR USE IN TREATING CANCER” (NAVIRE PHARMA, INC., priority 2021, published 2025)

Legend:
[1] = Single-dose pharmacokinetics, Beagle dog; assay type: in vivo, male); conditions: free base; for AUC(0-t): read-out: AUC0→24
Protocol: The pharmacokinetic (PK) parameters of Compound (10b) (freebase) were determined following single intravenous (IV) and oral (PO) administration in female CD-1 mouse, female C57BL/6 mouse (PO only), male Sprague Dawley rat, male Beagle dog, and male Cynomolgus monkey. Additional evaluation of the PK properties of Compound (10b) was obtained following single dose PO administration in female CD-1 mouse, male Sprague Dawley rat and male Beagle dog over a dose range spanning 10 to 300 mg/kg (mouse and rat) and 1 to 100 mg/kg (dog). The intravenous dose solutions were prepared in 20% DMSO-60% PEG400-20% water and the oral dose solutions as suspensions in 0.5% methylcellulose in water, unless otherwise noted. Plasma concentration profiles were generated from serial sampling in individual animals up to 24 hours post dose, except for the studies in mice where composite sampling methods were used (i.e. 3 sampling times per mouse; 9 mice per group). […] Exposures increased with increasing dose level across species, in a dose-proportional manner in mouse and dog, and in a greater than dose-proportional manner in rat (80× increase in AUC with a 30× increase in dosage).

KYSE-520 = experiment: DUSP6 mRNA levels (qPCR); assay type: cell-based; conditions: Homo sapiens; KYSE-520, EGFR^amp
Protocol: (§1) The potency of Compound (10b) in a panel of human tumor cell lines with active MAPK signaling was assessed. Cell viability in a 3D culture system was assessed by measuring CellTiter-Glo (CTG) luminescence following 8 days of treatment with nine concentrations of Compound (10b). MAPK pathway signaling was assessed by measuring pERK protein levels and DUSP6 mRNA levels by homogeneous time resolved fluorescence (HTRF) and quantitative polymerase chain reaction (qPCR), respectively. […] These viability effects correlated with pERK inhibition (Table 2, FIG. 6B) and DUSP6 inhibition (FIG. 6C).

NCI-H358 = experiment: DUSP6 mRNA levels (qPCR); assay type: cell-based; conditions: Homo sapiens; NCI-H358, KRAS^G12C
Protocol: as §1

[2] = Phase 1/1B first-in-human study, safety and PK (Cohorts 1-5); assay type: in vivo; design: Cmax/D / AUC/D: unit not given beside the values; conditions: for AUC/D: calculated using AUClast; for AUC(0-t) / Cmax / Tmax / half-life: human, plasma
Description: The initial results were from Cohorts 1-5 of the Phase 1/1B First-in-Human Study of Example 6.
No safety findings impacting the risk or benefit of compound (10b) reported in the 19 patients dosed. Nine (9) treatment-emergent serious adverse events (SAEs) were reported in 7 patients, none of which were deemed related to the treatment with compound (10b).

hERG potassium channel = hERG potassium channel (Homo sapiens, UniProt Q12809); experiment: hERG manual whole cell patch clamp in CHO cells
Protocol: HERG channel currents were recorded from single cells using standard whole cell recording techniques. The cells were voltage clamped at a holding potential of −80 mV. The hERG current was activated by depolarizing at +20 mV for 5 sec, after which the current was taken back to −50 mV for 5 sec to remove the inactivation and observe the deactivating tail current. The K+ tail current through HERG channels observed during this step was allowed to stabilize under continuous bath perfusion. […] Steady state was considered reached when three consecutive super-imposable current records were collected.

[3] = male, Beagle, dog, plasma, IV 1 mg/kg
[4] = male, Beagle, dog, plasma, oral 10 mg/kg
[5] = 250 mg QD, C1D1, N=2 (1 subject excluded)
[6] = oral, 80 mg, 80 mg QD, C1D1, N=1
[7] = oral, 80 mg, 80 mg QD, C2D1, N=1
[8] = oral, 150 mg, 150 mg QD, C1D1, N=3
[9] = oral, 150 mg, 150 mg QD, C2D1, N=3
[10] = oral, 250 mg, 250 mg QD, C1D1, N=2 (1 subject excluded)
[11] = oral, 250 mg, 250 mg QD, C2D1, N=1
[12] = oral, 400 mg, 400 mg QD, C1D1, N=5
[13] = oral, 400 mg, 400 mg QD, C2D1, N=3
[14] = oral, 550 mg, 550 mg QD, C1D1, N=6

Sequence of hERG potassium channel (Q12809 whole entry): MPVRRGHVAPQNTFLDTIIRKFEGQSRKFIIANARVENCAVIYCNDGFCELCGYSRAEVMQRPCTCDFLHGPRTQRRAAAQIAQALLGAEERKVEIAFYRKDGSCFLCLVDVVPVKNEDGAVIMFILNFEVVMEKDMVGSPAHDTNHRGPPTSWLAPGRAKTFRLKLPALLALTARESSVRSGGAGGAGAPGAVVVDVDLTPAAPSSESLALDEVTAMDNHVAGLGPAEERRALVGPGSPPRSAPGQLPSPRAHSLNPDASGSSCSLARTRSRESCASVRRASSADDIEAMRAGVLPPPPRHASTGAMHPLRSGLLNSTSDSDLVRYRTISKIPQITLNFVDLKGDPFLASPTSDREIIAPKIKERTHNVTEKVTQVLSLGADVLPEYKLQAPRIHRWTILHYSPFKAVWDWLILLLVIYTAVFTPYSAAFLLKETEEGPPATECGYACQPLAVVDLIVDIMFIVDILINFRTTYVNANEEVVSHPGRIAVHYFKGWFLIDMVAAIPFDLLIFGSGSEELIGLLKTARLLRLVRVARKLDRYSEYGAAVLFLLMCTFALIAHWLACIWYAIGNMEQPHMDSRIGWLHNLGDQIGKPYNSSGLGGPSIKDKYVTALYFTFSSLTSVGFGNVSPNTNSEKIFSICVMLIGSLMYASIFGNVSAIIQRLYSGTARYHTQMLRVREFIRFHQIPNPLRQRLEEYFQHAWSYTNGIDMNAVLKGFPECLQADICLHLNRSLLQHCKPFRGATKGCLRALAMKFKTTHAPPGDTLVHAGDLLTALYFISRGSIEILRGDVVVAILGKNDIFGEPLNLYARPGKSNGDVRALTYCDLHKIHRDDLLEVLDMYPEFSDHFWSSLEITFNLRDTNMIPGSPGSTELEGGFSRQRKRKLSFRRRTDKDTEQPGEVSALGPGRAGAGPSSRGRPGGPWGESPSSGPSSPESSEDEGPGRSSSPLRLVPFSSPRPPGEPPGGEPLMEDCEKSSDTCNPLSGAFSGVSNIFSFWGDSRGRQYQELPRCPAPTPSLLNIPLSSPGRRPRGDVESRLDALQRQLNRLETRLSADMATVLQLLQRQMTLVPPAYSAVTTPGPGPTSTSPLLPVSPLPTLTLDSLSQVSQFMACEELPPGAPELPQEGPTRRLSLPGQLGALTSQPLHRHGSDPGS

`Cc1c(N2CCC3(CC2)CO[C@@H](C)[C@H]3N)nc(C)n(-c2cccc(Cl)c2Cl)c1=O` (atropisomer, axis not shown; (Ra)) [Compound (10b), 6-((3S,4S)-4-amino-3-methyl-2-oxa-8-azaspiro[4.5]decan-8-yl)-3-(Ra)-(2,3-dichlorophenyl)-2,5-dimethylpyrimidin-4(3H)-one] showed a half-life [1, 3] of 8.23 h, an AUC(0-t) [1, 3] of 3.91 µM·h and a clearance ([1]; male, Beagle, dog, plasma, IV 1 mg/kg, read-out: Clp (converted)) of 8.5 mL/min/kg. It also gave a Vd ([1]; male, Beagle, dog, plasma, IV 1 mg/kg, read-out: Vdss) of 5.46 L/kg, a Cmax [1, 4] of 6.37 µM and a Tmax [1, 4] of 0.83 h. It also gave an AUC(0-t) [1, 4] of 48.2 µM·h, an F ([1]; oral 10 mg/kg) of 115% and an IC50 (KYSE-520) of 60 nM. The IC50 (NCI-H358) was 820 nM, the Cmax/D ([2]; 80 mg QD, C1D1, N=1) was 5.06 and the AUC/D ([2]; 80 mg QD, C1D1, N=1) was 61.1. For the same compound, the “P/T Ratio” value ([2]; 80 mg QD, C2D1, N=1) was 6.82, the Cmax/D ([2]; 150 mg QD, C1D1, N=3) was 4.34 and the AUC/D ([2]; 150 mg QD, C1D1, N=3) was 64.3. The “P/T Ratio” value ([2]; 150 mg QD, C2D1, N=3) was 3.19, the Cmax/D [2, 5] was 3.19 and the AUC/D [2, 5] was 42.4. For the same compound, the “P/T Ratio” value ([2]; 250 mg QD, C2D1, N=1) was 2.81, the Cmax/D ([2]; 400 mg QD, C1D1, N=5) was 3.85 and the AUC/D ([2]; 400 mg QD, C1D1, N=5) was 47.0. The “P/T Ratio” value ([2]; 400 mg QD, C2D1, N=3) was 3.42, the Cmax/D ([2]; 550 mg QD, C1D1, N=6) was 4.63 and the AUC/D ([2]; 550 mg QD, C1D1, N=6) was 68.6. The “Number of patients (n = 19) with TEAE: Constipation” value ([2]; Cohorts 1-5) was 1, the “Number of patients (n = 19) with TEAE: Diarrhea” value ([2]; Cohorts 1-5) was 5 and the “Number of patients (n = 19) with TEAE: Edema” value ([2]; Cohorts 1-5) was 4. For the same compound, the “Number of patients (n = 19) with TEAE: LFT increases” value ([2]; Cohorts 1-5) was 2, the “Number of patients (n = 19) with TEAE: LVEF decrease” value ([2]; Cohorts 1-5) was 1 and the “Number of patients (n = 19) with TEAE: Nausea/vomiting” value ([2]; Cohorts 1-5) was 4. For the same compound, the “Number of patients (n = 19) with TEAE: Rash” value ([2]; Cohorts 1-5) was 2, the “adverse events leading to study discontinuation” value ([2]; Cohorts 1-5) was “No adverse events (AEs) led to study discontinuation” and the “dose-limiting toxicity (DLTs)” value ([2]; Cohorts 1-5) was “no dose-limiting toxicity and None”. The “number of patients with treatment-emergent SAEs” value ([2]; Cohorts 1-5, 19 patients dosed) was 7, the “number of treatment-emergent serious adverse events (SAEs)” value ([2]; Cohorts 1-5, 19 patients dosed) was 9 and the “treatment-emergent SAEs deemed related to the treatment” value ([2]; Cohorts 1-5, 19 patients dosed) was “none”. For the same compound, the tolerability ([2]; Cohorts 1-5: 80, 150, 250, 400, 550 mg once daily, 19 patients) was “well tolerated”, the AUC(0-t) [2, 6] was 4890 ng·h/mL and the Cmax [2, 6] was 405 ng/mL. It also gave a Tmax [2, 6] of 2 h, an AUC(0-t) [2, 7] of 6290 ng·h/mL and a Cmax [2, 7] of 622 ng/mL. For the same compound, the Tmax [2, 7] was 1 h, the half-life ([2]; oral, 80 mg, 80 mg QD, C2D1, N=1, read-out: t1/2 (converted)) was 10 h and the AUC(0-t) [2, 8] was 9650 ng·h/mL. It also gave a Cmax [2, 8] of 651 ng/mL, a Tmax [2, 8] of 2 h and a half-life ([2]; oral, 150 mg, 150 mg QD, C2D1, N = 1, read-out: t1/2 (converted)) of 10.1 h. The AUC(0-t) [2, 9] was 18200 ng·h/mL, the Cmax [2, 9] was 1120 ng/mL and the Tmax [2, 9] was 3.33 h. The half-life ([2]; oral, 250 mg, 250 mg QD, C1D1, N = 1, read-out: t1/2 (converted)) was 9.44 h, the AUC(0-t) [2, 10] was 10600 ng·h/mL and the Tmax [2, 10] was 3 h. It also gave a Cmax ([2]; oral, 250 mg, 250 mg QD, C1D1, N=2 (1 subject with active gastritis excluded)) of 797 ng/mL, an AUC(0-t) [2, 11] of 21600 ng·h/mL and a Cmax [2, 11] of 1380 ng/mL. For the same compound, the Tmax [2, 11] was 2 h, the half-life ([2]; oral, 400 mg, 400 mg QD, C1D1, N = 1, read-out: t1/2 (converted)) was 10.1 h and the AUC(0-t) [2, 12] was 18800 ng·h/mL. For the same compound, the Cmax [2, 12] was 1540 ng/mL, the Tmax [2, 12] was 3 h and the half-life ([2]; oral, 400 mg, 400 mg QD, C2D1, N = 1, in parentheses: interpret with caution (large extrapolated AUC), read-out: t1/2 (converted)) was 12.3 h. For the same compound, the AUC(0-t) [2, 13] was 32000 ng·h/mL, the Cmax [2, 13] was 2270 ng/mL and the Tmax [2, 13] was 3 h. The AUC(0-t) [2, 14] was 37700 ng·h/mL, the Cmax [2, 14] was 2550 ng/mL and the Tmax [2, 14] was 2.67 h. The half-life ([2]; oral, read-out: Human Half life) was 10 to 16 h, the half-life ([2]; po, 80 mg, 80 mg QD, C1D1, N=1, in parentheses: interpret with caution (large extrapolated AUC), read-out: t1/2 (converted)) was 14.9 h and the half-life ([2]; po, 150 mg, 150 mg QD, C1D1, N=3, in parentheses: interpret with caution (large extrapolated AUC), read-out: t1/2 (converted)) was 15.6 h. For the same compound, the half-life ([2]; po, 550 mg, 550 mg QD, C1D1, N=6, in parentheses: interpret with caution (large extrapolated AUC), read-out: t1/2 (converted)) was 13.5 h, the IC50 (hERG potassium channel) was > 100000 nM and the “inhibition of hERG activity relative to vehicle control” value (hERG potassium channel; 100 μM) was 25.7%. The “effect on hERG channel activity” value (hERG potassium channel; 0.3 to 30 μM) was “no effect”.
